Assay results taken from patent publication US20050004029A1, “Methods and compositions for treating vascular leak using hepatocyte growth factor” (priority 2001, published 2005).

What was measured:
Assay type in all cases: cell-based
[1] = system: Bovine Pulmonary Artery Endothelium; test: Transendothelial electrical resistance (TER) across bovine pulmonary artery endothelium; conditions: VEGF 100 ng/ml, Sph 1-P 1 μM, HGF 20 ng/ml
Method: Bovine pulmonary artery endothelial cells were purchased from the American Type Culture Collection (ATCC®, Rockville, Md.) and utilized at passage 19-24. Cells were maintained in Medium 199 (Life Technologies, Rockville, Md.) supplemented with 20% (v/v) colostrum-free bovine serum (CFBS) (Irvine Scientific, Santa Ana, Calif.), 15 μg/ml endothelial cell growth supplement (Upstate Biotechnology, Lake Placid, N.Y.), 1% antibiotic and antimycotic, and 0.1 mM non-essential amino acids (Life Technologies). Human pulmonary artery endothelial cells were purchased from Clonetics (Walkersville, Md.), cultured in EBM-2 complete medium (Clonetics) and utilized at passage 5-10. Human alveolar epithelial cells (A549) were purchased from ATCC® and cultured in the same medium as the bovine endothelial cells, except that the endothelial cell growth supplement was omitted. All cells were maintained at 37° C. in a humidified atmosphere of 5% CO2 and 95% air.
Electrical resistance of EC monolayers was measured using electrical cell impedance sensor system (Applied Biophysics Inc., Troy, N.Y.) as described in Garcia, J. G. N. et al. (2000) J. Appl. Physiol. 89:2333-2343. Cells grown on gold microelectrodes (10^−3 cm^2) in polycarbonate wells act as insulating particles, and the resistance across the monolayers (transendothelial electrical resistance, or TER) is measured in real time. As cells adhere on the microelectrode and intercellular cell contacts are formed or in response to agents which increase junctional integrity, the TER increases (Garcia, J. G. N. et al. (2001) J. Clin. Invest. 108:689-711). In contrast, cell retraction, rounding, or loss of adhesion is reflected by decreases in TER (Garcia, J. G. N. et al. (2000) J. Appl. Physiol. 89:2333-2343). These measurements provide a highly sensitive biophysical assay that indicates the state of cell shape, focal adhesion, and endothelial barrier function (Giaever, I. and Keese, C. R. (1993) Nature 366:591-592; Tiruppathi, C. et al. (1992) Proc. Natl. Acad. Sci. USA 89:7919-7923). All electrical resistance data are presented as normalized values. Briefly, current was applied across the electrodes by a 4000 Hz AC voltage source with an amplitude of 1 V in series with a 1 MΩ resistance to approximate a constant current source (−1 μA). The small gold electrode and the larger counter electrode (1 cm^2) were connected to a phase-sensitive lock-in amplifier (5301A; EG&G Instruments Corp, Princeton, N.J.) with a built in differential preamplifier (5316A; EG&G Instruments Corp.). The in-phase and out-of-phase voltages between the electrodes were monitored in real time with the lock-in amplifier and converted to scalar measurements of transendothelial impedance, of which resistance was the primary focus. […] For some experiments, total TER was vectorially resolved into components reflecting resistance to current flow beneath the cell layer (α) and resistance to current flow between adjacent cells (Rb) as described in Garcia et al. (2000) supra utilizing the method of Giaiver and Keese which models the endothelial monolayer mathematically (Giaever, I. and Keese, C. R. (1993) Nature 366:591-592). Thus, changes in α reflect alterations in the net state of cell-matrix adhesion, whereas changes in Rb reflect alterations in the integrity of cell-cell adhesion. TER values from each microelectrode were pooled at discrete time points and plotted versus time as the mean±standard error of the mean (Garcia et al. (2000) supra).

[2] = system: human alveolar epithelial cells (A549); test: Electrical resistance of A549 alveolar epithelial cells on gold microelectrodes; conditions: HGF 100 ng/mL; sphingosine 1-phosphate 1 μM
Method: FIGS. 1A-1D depict HGF-mediated increases in human transendothelial electrical resistance (TER). FIG. 1A: Human pulmonary artery endothelial cells were grown to confluence on gelatinized gold microelectrodes. Two hours prior to TER measurement, growth medium was replaced with serum-free M199. Serial-diluted HGF was added to cells at indicated concentrations and TER monitored for 2.5 hr. […] The result shown is a representative TER tracing of three independent experiments. FIG. 1B: Similar to FIG. 1A, human alveolar epithelial cells (A549) were grown on gold microelectrodes and challenged with vehicle, HGF, (100 ng/mL) or sphingosine 1-phosphate (1 μM). […]
Electrical resistance of EC monolayers was measured using electrical cell impedance sensor system (Applied Biophysics Inc., Troy, N.Y.) as described in Garcia, J. G. N. et al. (2000) J. Appl. […] Cells grown on gold microelectrodes (10^−3 cm^2) in polycarbonate wells act as insulating particles, and the resistance across the monolayers (transendothelial electrical resistance, or TER) is measured in real time. […] The in-phase and out-of-phase voltages between the electrodes were monitored in real time with the lock-in amplifier and converted to scalar measurements of transendothelial impedance, of which resistance was the primary focus. […]

Rac GTPase = Rac GTPase activity, p21 Rac-binding domain assay; conditions: HGF 10 ng/mL or Sph-1-P 1 μM for 1 or 5 min
Method: Endothelial cells grown in 100 mm dishes were incubated with agonists in serum-free M199. Cells were lysed in 500 μl Mg^2+ lysis buffer (Upstate Biotechnology, Lake Placid, N.Y.) and homogenized by pipetting. After a brief centrifugation to remove the cell debris, 300 μl of supernatant was incubated with the agarose-conjugated p21-binding domain (PBD) of human PAK-1 (10 μg, 30 min, Upstate Biotechnology). The agarose beads were washed with 1 ml of lysis buffer 5 times and re-suspended in 30 μl of 2×SDS buffer. After 10 min centrifugation at 14,000 g, 15 μl of supernatant from each sample was subjected to electrophoresis in 15% PAGE. […] For total Rac protein measurement, 5 μl of the original cell lysates were used for electrophoresis and western analysis. […] Pulmonary artery endothelial cells were incubated with HGF (10 ng/mL) or Sph-1-P (1 μM) for 1 or 5 min. Cells were lysed, supernatants collected, and activated GTP-bound Rac was precipitated by agarose-conjugated human PAK-1 p21-binding domain and subsequently immunoblotted by anti-Rac mAb. Total Rac protein was detected using cell lysates.

[3] = vs vehicle control, ±SEM, thrombin 100 μM

CCCCCCCCCCCCC/C=C/[C@@H](O)[C@@H](N)COP(=O)(O)O [Sph 1-P, sphingosine 1-phosphate, reference compound]
TER response in words ([1]; thrombin, 10-60 min): brisk and sustained increase in TER | changes in TER 30 min [1, 3]: +50 ± 6% | changes in TER 60 min [1, 3]: +35 ± 4% | changes in TER 10 min ([1]; vs vehicle control, ±SEM, thrombin 100 μM, (+) increased, (−) decreased): +50 ± 5% | effect on electrical resistance of epithelial cells [2]: did enhance epithelial cell integrity | Rac activity (Rac GTPase): rapidly and transiently increases Rac activity
